Measured values as given in patent US20260130404A1, “SWEETNESS AND TASTE IMPROVEMENT OF NON-SUCROSE SWEETENERS WITH D-SUGARS OR L-SUGARS” (The Coca-Cola Company, priority 2022, published 2026).
Like-named read-outs stand apart in the source and are kept apart here.

How the values were obtained:
panelists [1] = assay: Sensory panel paired comparison of lemon-lime beverages with Reb M; format: in vivo; conditions: 1% in a lemon-lime matrix containing 475 ppm rebaudioside M
Experimental: (§1) The ingredients were dissolved in filtered water to constitute a syrup, then the final beverage was made by weighing the appropriate syrup amount and adding carbonated water using a ratio of 1-part syrup+5.4 parts carbonated water to target a carbonation of 3.8 volumes of CO2. Final beverages were filled in 300 ml glass bottles and served cold (4° C.). A sensory panel was provided with the D-glucose (@1%) containing beverage of Table 1 and the control shown therein. The beverages were evaluated blindly by six or seven panelists. Samples were coded and randomly presented to the panelists. Panelists were instructed to eat an unsalted cracker and rinse the mouth with water before and in between the samples. For each sample, panelists were instructed to taste, then write down their evaluation comments in paired comparison test between control and prototypes. Panelists ranked higher the sample that had higher sweet intensity, fast sweet onset, more sugar like mouthfeel, less sweet linger, less bitter and overall best tasting. […] Samples were coded and randomly presented to the panelists. Panelists were instructed to eat an unsalted cracker and rinse the mouth with water before and in between the samples. […]

panelists [2] = assay: Sensory panel paired comparison of lemon-lime beverages with Siamenoside I; format: in vivo; conditions: 2% in a lemon-lime matrix containing 600 ppm Siamenoside I
Experimental: as §1, with “Table 4” for “Table 1”

human sense of taste [3] = conditions: cited from earlier work
human sense of taste [4] = conditions: cited from earlier work; remark: listed apart in the source
taste panelists = conditions: background statement; cited from earlier work
[5] = lowest known concentration perceivable as sweet, ppm equivalent of the mM value
[6] = lowest known concentration perceivable by the human sense of taste as sweet

Compound | taste modulation (sensory testing, FIG. 1 and 2) (panelists [1]) | taste modulation (sensory testing, FIG. 3 and 4) (panelists [2]) | sweetness recognition threshold concentration (human sense of taste [3]; [5]) | sweetness recognition threshold concentration (human sense of taste [3]; [6]) | detection threshold concentration (human sense of taste [4]; lowest known concentration perceivable by the human sense of taste) | detection threshold concentration (human sense of taste [4]; lowest known concentration perceivable, ppm equivalent of the mM value) | maximal sucrose equivalence (taste panelists)
O=C[C@H](O)[C@@H](O)[C@H](O)[C@H](O)CO [D-glucose] | effective taste modulator | effective taste modulator | about 7386 ppm | about 41±6 mM | about 13 mM | about 2342 ppm | 
C=C1C[C@@]23CC[C@H]4[C@@](C)(CCC[C@@]4(C)C(=O)O[C@@H]4O[C@H](CO)[C@@H](O)[C@H](O[C@@H]5O[C@H](CO)[C@@H](O)[C@H](O)[C@H]5O)[C@H]4O[C@@H]4O[C@H](CO)[C@@H](O)[C@H](O)[C@H]4O)[C@@H]2CC[C@]1(O[C@@H]1O[C@H](CO)[C@@H](O)[C@H](O[C@@H]2O[C@H](CO)[C@@H](O)[C@H](O)[C@H]2O)[C@H]1O[C@@H]1O[C@H](CO)[C@@H](O)[C@H](O)[C@H]1O)C3 [rebaudioside M] |  |  |  |  |  |  | greater than 10%
O=C[C@@H](O)[C@H](O)[C@@H](O)[C@@H](O)CO [L-glucose] | effective taste modulator | effective taste modulator | about 5765 ppm | about 32±7 mM |  |  | 
C=C1C[C@@]23CC[C@H]4[C@@](C)(CCC[C@@]4(C)C(=O)O[C@@H]4O[C@H](CO)[C@@H](O)[C@H](O)[C@H]4O)[C@@H]2CC[C@]1(O[C@@H]1O[C@H](CO)[C@@H](O)[C@H](O[C@@H]2O[C@H](CO)[C@@H](O)[C@H](O)[C@H]2O)[C@H]1O[C@@H]1O[C@H](CO)[C@@H](O)[C@H](O)[C@H]1O)C3 [rebaudioside A] |  |  |  |  |  |  | ≤ 10%
